Assay results: ChEMBL document CHEMBL1150451, “Synthetic studies on the furan ring of wortmannin” (Bioorg Med Chem Lett, 1995)

Assay: Inhibition of Phosphatidylinositol 3-kinase

| Structure (SMILES) | IC50 [nM] |
| --- | --- |
| CCN(/C=C1/C(=O)O[C@H](COC)[C@@]2(C)C1=C(O)C(=O)C1=C2[C@H](OC(C)=O)C[C@]2(C)C(=O)CC[C@@H]12)CC | 80 |
| COC[C@H]1OC(=O)C(=C(C)C)C2=C(O)C(=O)C3=C([C@H](OC(C)=O)C[C@]4(C)C(=O)CC[C@@H]34)[C@]21C | > 500 |
| COC[C@H]1OC(=O)C2=CCOC3=C2[C@@]1(C)C1=C(C3=O)[C@@H]2CCC(=O)[C@@]2(C)C[C@H]1OC(C)=O | 271 |
| COC[C@H]1OC(=O)C23CC2COC2=C3[C@@]1(C)C1=C(C2=O)[C@@H]2CCC(=O)[C@@]2(C)C[C@H]1OC(C)=O (some centres undefined) | > 500 |
| COC[C@H]1OC(=O)c2coc3c2[C@@]1(C)C1=C(C3=O)[C@@H]2CCC(=O)[C@@]2(C)C[C@H]1OC(C)=O [WORTMANNIN] | 4.2 |

Next, values leading:

| IC50 [nM] | Structure (SMILES) |
| --- | --- |
| > 500 | CC/N=C/C1=C(O)O[C@H](COC)[C@@]2(C)C1=C(O)C(=O)C1=C2[C@H](OC(C)=O)C[C@]2(C)C(=O)CC[C@@H]12 |
| > 500 | COC[C@H]1OC(O)=C(C=N)C2=C(O)C(=O)C3=C([C@H](OC(C)=O)C[C@]4(C)C(=O)CC[C@@H]34)[C@]21C |
| > 500 | C/N=C/C1=C(O)O[C@H](COC)[C@@]2(C)C1=C(O)C(=O)C1=C2[C@H](OC(C)=O)C[C@]2(C)C(=O)CC[C@@H]12 |
| > 500 | CCC/N=C\C1=C(O)O[C@H](COC)[C@@]2(C)C1=C(O)C(=O)C1=C2[C@H](OC(C)=O)C[C@]2(C)C(=O)CC[C@@H]12 |
